Test results reported in patent US8486964B2, “Fused pyrrolidino-cyclopropane derivatives as selective 11-beta-hydroxysteroid dehydrogenase type 1 inhibitors” (Merck Patent GmbH, priority 2009, dated 2013).

Legend:
Assay type in all cases: biochemical
[1] = target: human 11-β-HSD-1 (Homo sapiens (Human), UniProt P28845); test: Inhibition of 11-β-HSD-1 enzyme assay (HTRF cortisol), human recombinant enzyme; settings: human recombinant enzyme expressed in E. coli; cortisone/NADPH 200 nM/200 μM; 150 minutes at 37° C.
Description: (§1) Human recombinant 11-beta-hydroxysteroid dehydrogenase type 1 (11-β-HSD-1) enzyme was expressed in E. coli. Rat and mice liver microsome fractions were purchased from TEBU.
(§2) The 11-β-HSD-1 enzyme assay was carried out in 96 well microtiter plates in a total volume of 100 μl containing 30 mM Hepes buffer, pH 7.4 with 1 mM EDTA, substrate mixture cortisone/NADPH (200 nM/200 μM), G-6-P (1 mM) and inhibitors in serial dilutions. Reactions were initiated by addition of 10 μl 11-β-HSD-1 (3 μg) from E. coli, either as microsome fractions from rat and mice liver (2.5 μg). Following mixing, the plates were shaken for 150 minutes at 37° C. The reactions were terminated with 10 μl Acid-18beta glycyrrhetinic stop solution. Determinations of cortisol levels in 11-β-HSD-1 preparations were monitored by HTRF (HTRF cortisol assay from Cis bio international).

[2] = target: mouse 11-β-HSD-1 (Mus musculus (Mouse), UniProt P50172); test: Inhibition of 11-β-HSD-1 enzyme assay (HTRF cortisol), mice liver microsome fractions; settings: cortisone/NADPH 200 nM/200 μM, 150 minutes at 37° C.
Description: as §1, §2

[3] = target: rat 11-β-HSD-1 (Rattus norvegicus (Rat), UniProt P16232); test: Inhibition of 11-β-HSD-1 enzyme assay (HTRF cortisol), rat liver microsome fractions; settings: cortisone/NADPH 200 nM/200 μM, 150 minutes at 37° C.
Description: as §1, §2

Sequence of mouse 11-β-HSD-1 (P50172 whole entry): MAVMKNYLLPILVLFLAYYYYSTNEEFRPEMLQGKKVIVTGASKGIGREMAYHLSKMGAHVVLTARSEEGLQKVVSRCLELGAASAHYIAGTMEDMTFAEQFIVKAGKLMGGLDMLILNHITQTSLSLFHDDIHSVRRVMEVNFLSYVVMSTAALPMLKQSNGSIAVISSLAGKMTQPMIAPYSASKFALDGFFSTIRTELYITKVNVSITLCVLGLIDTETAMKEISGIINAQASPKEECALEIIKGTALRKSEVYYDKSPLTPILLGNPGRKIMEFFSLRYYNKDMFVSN
Sequence of rat 11-β-HSD-1 (P16232 whole entry): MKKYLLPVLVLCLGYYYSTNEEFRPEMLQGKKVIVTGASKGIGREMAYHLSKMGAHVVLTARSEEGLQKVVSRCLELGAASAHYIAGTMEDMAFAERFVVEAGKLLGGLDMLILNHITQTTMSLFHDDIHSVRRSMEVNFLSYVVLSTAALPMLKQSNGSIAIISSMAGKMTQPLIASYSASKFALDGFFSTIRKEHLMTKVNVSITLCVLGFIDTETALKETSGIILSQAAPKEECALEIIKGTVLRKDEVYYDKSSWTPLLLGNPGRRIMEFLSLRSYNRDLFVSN
Sequence of human 11-β-HSD-1 (P28845 whole entry): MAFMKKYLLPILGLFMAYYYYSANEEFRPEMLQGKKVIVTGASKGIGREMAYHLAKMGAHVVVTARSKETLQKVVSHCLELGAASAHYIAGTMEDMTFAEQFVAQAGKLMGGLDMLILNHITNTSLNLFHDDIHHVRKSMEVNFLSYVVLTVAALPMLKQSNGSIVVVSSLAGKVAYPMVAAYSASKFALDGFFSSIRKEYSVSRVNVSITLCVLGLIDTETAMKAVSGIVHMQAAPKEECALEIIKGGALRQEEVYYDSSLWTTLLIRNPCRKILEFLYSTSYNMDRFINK

IC50 [1]: 0.022 µM | IC50 [2]: 1.54 µM | IC50 [3]: 1.29 µM
SMILES: O=C(N1CCC2(c3c[nH]c4ncccc34)CC12)C1(c2ccc(Cl)cc2)CC1 (stereo not drawn) [Compound 2, 3-(2-{[1-(4-chlorophenyl)cyclopropyl]carbonyl}-2-azabicyclo[3.1.0]hex-5-yl)-1H-pyrrolo[2,3-b]pyridine]
